Entries after “also recorded” stand apart in the source; their conditions may differ.
Key:
TGFβ1 = assay: IP-Western of mature dimeric TGFβ1 in tissue lysates of treated mice; type: in vivo; settings: lysates from Collα1(I)+/+ and Collα1(I)r/r mice treated with GM6001
[1] = system: Collα1(I)+/+ and Collα1(I)r/r mice; assay: Miles assay: Evans blue leakage in ears after mustard oil challenge; type: in vivo; settings: for Evans blue dye leakage into vascular stroma after MO, GM6001-treated versus vehicle-treated mice: GM6001 i.p. 100 mg/kg daily for 3-days before MO challenge
Method: Evans blue (EB) dye (30 mg/kg in 100 μl PBS; Sigma-Aldrich) was injected into the tail vein of 7- to 8-week-old mice. In some experiments, after 1-min, 30 μl of 5% mustard oil (Phenyl Isothiocyanate, 98%, Sigma-Aldrich) diluted in mineral oil (Sigma-Aldrich) was applied to the dorsal and ventral surfaces of the ear; the application process was repeated 15 minutes later. Isoflurane anesthesized mice were photographed 30 minutes after injection of EB dye. Anesthesized mice were then cardiac perfused, ears removed, blotted dry and weighed. EB dye was extracted from ears in 1 ml of formamide overnight to 48-hrs at 60° C. and measured spectrophotometrically at 610 nm in a SpectraMax 340™ (Molecular Devices). Data are expressed as mean±SEM. Comparisons of the amounts of dye extravasation were evaluated by Mann-Whitney statistical test with p values less than 0.05 considered significant. In some experiments, 5-min prior to the infusion of EB dye, shaved 5-to 7-week old mice were injected (10 μl) intradermally with one of the following agents at the concentrations shown (VEGF120, R&D Systems; VEGF164, Chemicon; histamine, Calbiochem; serotonin, Sigma-Aldrich) and the appearance of a blue spot monitored for 30 minutes at which time mice were euthanized, cardiac perfused, photographed and the area of skin surrounding the site of injection excised (˜5 mm^2), photographed and EB dye extracted as above. […]
The vascular physiology in a mouse model of human Sc, e.g., Collα1(I)^r/r mice, was studied to determine whether an altered balance between collagen synthesis, accumulation and/or degradation was a rate-limiting factor for efficient vascular physiology prior to histopathologic appearance of Sc disease. The ears of Collα1(I)^r/r versus littermate control (Collα1(I)^+/+) mice were treated with vehicle alone (mineral oil; FIG. 1A) or mustard oil (MO; 5% in mineral oil: right ear), an inflammatory agent that induces plasma leakage, vasodilation of capillaries and inflammation in the skin (FIG. 1A). Evans blue dye (30 mg/kg in 100 μl PBS; Sigma Chemical Co., St. Louis, Mo., USA) was injected into the tail vein of the mice. After 1 minute, 5% mustard oil (Phenyl Isothiocyanate, 98%, Sigma) diluted in mineral oil (Sigma) was applied to the dorsal and ventral surfaces of the ear with a cotton swab; the application process was repeated 15 minutes later. […] Isoflurane anesthesized mice were photographed 30 minutes after injection of Evans blue dye. Anesthesized mice were then cardiac perfused, ears removed, blotted dry, and weighed. The Evans blue dye was extracted from the ears with 1 ml of formamide overnight at 60° C. and measured spectrophotometrically at 610 nm in a SpectraMax 340™ (Molecular Devices). Data are expressed as mean±SEM. Comparisons of the amounts of dye extravasation were evaluated by the Fisher's t test with p values less than 0.05 considered significant.
Vascular permeability (VP) responses in control and Collα1(I)^r/r mice treated with a broad spectrum synthetic metalloproteinase inhibitor (MPI), e.g., GM6001 were examined. GM6001 (N-[(2R)-2(hydroxyamidocarbonylmethyl)-4-methylpantanoyl]-L-tryptophan ethylamide), a broad, class-specific metalloproteinase inhibitor (Chemicon, Temecula Calif.), was administered daily i.p. at 100 mg/kg body weight as a 20 mg/ml slurry in 4% carboxymethylcellulose in 0.9% PBS daily for 3-days. Controls were treated with a daily injection of 4% carboxymethylcellulose in PBS. The animals were then subject to cutaneous challenge with MO and qualitative and quantitative assessment of Evans blue dye leakage into vascular stroma (FIG. 5A).

MP activity = settings: GM6001 i.p. 100 mg/kg, 20 mg/ml slurry in 4% CMC; cited from earlier work
[2] = system: gelatinolytic activity in Collα1(I)r/r skin; assay: Substrate conversion assay (DQ-gelatin) on skin lysates; type: biochemical, mice; settings: inhibitor at 4 mM
Method: Shaved back skin pieces from 5-8 week old mice were pulverized in liquid N2 and solubilized in 500 μl buffer (0.25 M sucrose, 5 mM Tris, pH 7.5, protease Inhibitor cocktail mix without EDTA (Roche), 0.25 mg/ml Pefablock (Roche), 0.01 mg/ml Aprotinin (Sigma-Aldrich) using a 2 ml tissue grinder (Fisher) and centrifuged at 4° C. 800×g for 15-min. Supernatants were centrifuged for 1-hr at 100,000×g at 4° C. Supernatants were stored at −80° C., pellets were resuspended in 100 μl solubilization buffer, homogenized by sonication at 4° C., and stored at −80° C. Protein concentration was determined with the BioRad DC Protein assay reagent according to manufacturers instructions (BioRad). Prior to assay, lysate buffers were exchanged using Micro Bio-spin chromatography columns (Bio-gelP-6; BioRad) to 10 mM Tris pH 7.5 according to the manufacturers specifications. […] Reactions were incubated up to 5-hr at 37° C. and fluorescence measured (excitation 485 nm, emission 530 nm) every 3-min on a Microplate Spectrofluorometer (SpectraMax Gemini EM, Molecular Devices) and quantified using SoftMax Pro 4.1 software. […]

[3] = control versus Colα1(I)r/r mice +/- mustard oil, p<0.03

| Compound | level of ~25 kDa dimeric mature form of TGFβ1 in tissue lysates (TGFβ1) | Evans blue dye leakage into vascular stroma after MO, GM6001-treated versus vehicle-treated mice ([1]; Collα1(I)r/r mice) | Evans blue dye leakage into vascular stroma after MO, GM6001-treated versus vehicle-treated mice ([1]; control Collα1(I)+/+ mice) | effect of GM6001, fold increase (FIG. 5) [1, 3] | effect of GM6001, increase in % (FIG. 5) [1, 3] | in vivo MP activity (MP activity) | gelatinolytic activity in skin lysate [2] |
| --- | --- | --- | --- | --- | --- | --- | --- |
| CNC(=O)[C@H](Cc1c[nH]c2ccccc12)NC(=O)[C@@H](CC(=O)NO)CC(C)C [GM6001] | markedly decreased; also recorded: reduced | significantly above vehicle-treated; also recorded: restored the appropriate acute vascular responses; also recorded: restores acute vascular responses | higher than that observed in MO-treated control mice receiving vehicle alone; also recorded: even more susceptible to MO-induced EB leakage; also recorded: hyper-sensitive to vascular leakage | 1.8 fold | 54% | inhibit in vivo MP activity |  |
| c1cnc2c(c1)ccc1cccnc12 [1,10 phenanthroline] |  |  |  |  |  |  | completely inhibited |

Reference: patent publication US20080206219A1, “Novel Indications for Transforming Growth Factor-Beta Regulators” (THE REGENCTS OF THE UNIVERSITY OF CALIFORNIA, priority 2003, published 2008)
